# From PMC6934184, “Selective DNA-PKcs inhibition extends the therapeutic index of localized radiotherapy and chemotherapy” (The Journal of Clinical Investigation, 2019)
# Molecular target: T1, CDK8/cyclin C (Homo sapiens, UniProt P49336)
# T1 construct: purchased Thermo Fisher Scientific (Life Technologies) SelectScreen
# Assay: SelectScreen LanthaScreen
# Format: binding
# Settings: 1 µM
# Outline: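 NU5455 was profiled across the SelectScreen Broad panel of kinase activity and binding assays. Z'LYTE reactions such as CSF1R ran at apparent Km ATP, while the Adapta CAMK1 assay used ATP listed as 10. Values are given as percent.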
# T1 sequence (P49336 whole entry): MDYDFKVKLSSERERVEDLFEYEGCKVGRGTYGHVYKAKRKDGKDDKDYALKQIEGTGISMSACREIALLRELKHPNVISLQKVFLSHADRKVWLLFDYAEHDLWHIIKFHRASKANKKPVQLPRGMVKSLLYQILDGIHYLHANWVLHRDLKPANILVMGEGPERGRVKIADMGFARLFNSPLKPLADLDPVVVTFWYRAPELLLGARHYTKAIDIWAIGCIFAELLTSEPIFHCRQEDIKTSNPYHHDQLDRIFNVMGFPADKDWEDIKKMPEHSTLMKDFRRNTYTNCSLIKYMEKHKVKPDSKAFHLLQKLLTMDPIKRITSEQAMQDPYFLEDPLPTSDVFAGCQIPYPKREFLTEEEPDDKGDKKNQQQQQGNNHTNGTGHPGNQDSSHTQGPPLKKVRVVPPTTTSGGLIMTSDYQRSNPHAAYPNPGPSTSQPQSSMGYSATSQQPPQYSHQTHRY
# T1 sequence (P24863 whole entry partner): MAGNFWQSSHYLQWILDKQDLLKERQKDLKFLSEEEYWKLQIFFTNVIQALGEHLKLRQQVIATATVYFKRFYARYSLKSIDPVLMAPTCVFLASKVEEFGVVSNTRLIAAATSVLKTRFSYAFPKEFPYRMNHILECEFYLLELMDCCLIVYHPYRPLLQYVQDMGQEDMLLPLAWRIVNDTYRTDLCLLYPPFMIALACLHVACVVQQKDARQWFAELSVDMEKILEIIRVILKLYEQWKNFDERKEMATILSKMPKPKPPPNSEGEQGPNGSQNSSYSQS
structure (smiles),measurement,value
CN(C(=O)CN1CCOCC1)c1ccc2sc3c(-c4cccc5c(=O)cc(N6CC7CCC(C6)O7)oc45)cccc3c2c1 [NU5455],% displacement,0.1%
